Literature values as cited in publication PMC9516332 (Frontiers in Oncology, 2022).
Where two headings read alike, the source gives them in different places.

Key:
[1] = molecular target: panel of 255 wild-type kinases (Homo sapiens, UniProt Q15303); conditions: kinase HER4, 1 µmol/L single concentration, cited from earlier work
[2] = molecular target: T1, panel of 255 wild-type kinases (Homo sapiens, UniProt P21709); conditions: kinase EPHA1, 1 µmol/L single concentration, cited from earlier work
T1 sequence (P21709 26-976): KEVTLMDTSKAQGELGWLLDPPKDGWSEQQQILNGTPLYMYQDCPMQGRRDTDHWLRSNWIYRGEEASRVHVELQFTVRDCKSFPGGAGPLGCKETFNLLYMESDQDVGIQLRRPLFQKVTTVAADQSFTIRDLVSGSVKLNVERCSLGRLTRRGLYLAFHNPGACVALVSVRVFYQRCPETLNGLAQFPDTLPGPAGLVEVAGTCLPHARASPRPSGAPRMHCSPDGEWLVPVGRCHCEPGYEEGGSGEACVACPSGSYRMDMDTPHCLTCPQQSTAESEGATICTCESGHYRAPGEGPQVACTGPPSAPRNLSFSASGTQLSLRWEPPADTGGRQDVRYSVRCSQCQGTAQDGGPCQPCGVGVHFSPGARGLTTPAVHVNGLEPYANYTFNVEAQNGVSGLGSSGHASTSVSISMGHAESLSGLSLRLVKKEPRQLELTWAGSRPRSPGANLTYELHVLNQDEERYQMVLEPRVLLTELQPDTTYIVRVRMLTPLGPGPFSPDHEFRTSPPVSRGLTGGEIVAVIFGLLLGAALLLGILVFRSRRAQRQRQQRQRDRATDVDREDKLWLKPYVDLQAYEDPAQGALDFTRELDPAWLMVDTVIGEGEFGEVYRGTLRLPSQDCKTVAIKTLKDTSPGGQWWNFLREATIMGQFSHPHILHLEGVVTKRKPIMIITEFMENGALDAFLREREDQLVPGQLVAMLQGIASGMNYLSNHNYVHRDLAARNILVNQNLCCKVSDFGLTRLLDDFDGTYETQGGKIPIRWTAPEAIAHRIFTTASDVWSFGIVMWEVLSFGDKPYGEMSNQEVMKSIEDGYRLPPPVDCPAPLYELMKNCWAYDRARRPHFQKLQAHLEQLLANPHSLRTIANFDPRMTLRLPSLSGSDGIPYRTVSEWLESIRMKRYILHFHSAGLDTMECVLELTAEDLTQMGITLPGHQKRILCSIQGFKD

[3] = molecular target: T2, panel of 255 wild-type kinases (Homo sapiens, UniProt Q02156); conditions: kinase PKCε, 1 µmol/L single concentration, cited from earlier work
T2 sequence (Q02156 1-737): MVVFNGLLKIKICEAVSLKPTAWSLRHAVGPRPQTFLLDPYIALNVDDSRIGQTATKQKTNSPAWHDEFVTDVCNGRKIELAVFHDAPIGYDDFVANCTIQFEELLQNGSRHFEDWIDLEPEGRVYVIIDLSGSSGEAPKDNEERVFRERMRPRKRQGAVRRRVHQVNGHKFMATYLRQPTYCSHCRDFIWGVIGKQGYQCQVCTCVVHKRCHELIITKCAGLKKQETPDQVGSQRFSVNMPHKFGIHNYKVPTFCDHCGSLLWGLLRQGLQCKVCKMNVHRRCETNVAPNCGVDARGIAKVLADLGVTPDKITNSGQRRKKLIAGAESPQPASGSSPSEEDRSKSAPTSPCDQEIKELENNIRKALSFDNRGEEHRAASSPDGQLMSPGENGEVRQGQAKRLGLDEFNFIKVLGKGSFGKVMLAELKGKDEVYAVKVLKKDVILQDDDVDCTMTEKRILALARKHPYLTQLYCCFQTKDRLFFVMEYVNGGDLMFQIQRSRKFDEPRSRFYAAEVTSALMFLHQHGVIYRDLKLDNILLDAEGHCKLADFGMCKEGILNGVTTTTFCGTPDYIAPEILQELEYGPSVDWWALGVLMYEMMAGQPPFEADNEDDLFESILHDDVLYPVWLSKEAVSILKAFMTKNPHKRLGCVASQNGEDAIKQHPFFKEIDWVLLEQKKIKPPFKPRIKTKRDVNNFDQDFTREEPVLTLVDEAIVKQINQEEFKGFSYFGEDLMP

[4] = molecular target: panel of 255 wild-type kinases (Homo sapiens, UniProt P06213); conditions: kinase INSR, 1 µmol/L single concentration, cited from earlier work
[5] = molecular target: panel of 255 wild-type kinases (Homo sapiens, UniProt P23458); conditions: kinase JAK1, 1 µmol/L single concentration, cited from earlier work
[6] = molecular target: panel of 255 wild-type kinases (Homo sapiens, UniProt Q86Z02); conditions: kinase HIPK1, 1 µmol/L single concentration, cited from earlier work
[7] = molecular target: panel of 255 wild-type kinases (Homo sapiens, UniProt Q9NYY3); conditions: kinase PLK2, 1 µmol/L single concentration, cited from earlier work
[8] = molecular target: panel of 255 wild-type kinases (Homo sapiens, UniProt Q05655); conditions: kinase PKCδ, 1 µmol/L single concentration, cited from earlier work
[9] = molecular target: panel of 255 wild-type kinases (Homo sapiens, UniProt P29376); conditions: kinase LTK, 1 µmol/L single concentration, cited from earlier work
[10] = ref DOI: 10.1158/1535-7163.MCT-18-0877
[11] = ref DOI: 10.1371/journal.pone.0092146

Structure (SMILES)	%-inhibition at 1 µmol/L, HER4 [1, 10] [%]	%-inhibition at 1 µmol/L, EPHA1 [2, 10] [%]	%-inhibition at 1 µmol/L, PKCε [3, 10] [%]	%-inhibition at 1 µmol/L, INSR [4, 10] [%]	%-inhibition at 1 µmol/L, JAK1 [5, 10] [%]	%-inhibition at 1 µmol/L, HIPK1 [6, 10] [%]	%-inhibition at 1 µmol/L, PLK2 [7, 10] [%]	%-inhibition at 1 µmol/L, PKCδ [8, 10] [%]	%-inhibition at 1 µmol/L, LTK [9, 10] [%]	%-inhibition at 1 µmol/L, HER4 [1, 11] [%]	%-inhibition at 1 µmol/L, EPHA1 [2, 11] [%]	%-inhibition at 1 µmol/L, PKCε [3, 11] [%]	%-inhibition at 1 µmol/L, INSR [4, 11] [%]	%-inhibition at 1 µmol/L, JAK1 [5, 11] [%]	%-inhibition at 1 µmol/L, HIPK1 [6, 11] [%]	%-inhibition at 1 µmol/L, PLK2 [7, 11] [%]	%-inhibition at 1 µmol/L, PKCδ [8, 11] [%]	%-inhibition at 1 µmol/L, LTK [9, 11] [%]
O=C(c1ccc(F)c(F)c1Nc1ccc(I)cc1F)N1CC(O)([C@@H]2CCCCN2)C1 [cobimetinib]	11	0.613	4.22	2.48	-8.53	6.62	-0.309	-2.12	2.85	–	–	–	–	–	–	–	–	–
CC(C)(C)c1nc(-c2cccc(NS(=O)(=O)c3c(F)cccc3F)c2F)c(-c2ccnc(N)n2)s1 [dabrafenib]	–	–	–	–	–	–	–	–	–	23	44	5	7.51	5.7	70	-4.64	-6	2.67
Cc1cc(Nc2ncc(Cl)c(Nc3ccccc3S(=O)(=O)C(C)C)n2)c(OC(C)C)cc1C1CCNCC1 [ceritinib]	51	45	11	102	-4.51	12	-3.54	5	100	–	–	–	–	–	–	–	–	–
CCc1cc2c(cc1N1CCC(N3CCOCC3)CC1)C(C)(C)c1[nH]c3cc(C#N)ccc3c1C2=O [alectinib]	34	5.62	10	83	-10	2.52	6	1.83	99	–	–	–	–	–	–	–	–	–
CCCS(=O)(=O)Nc1ccc(F)c(C(=O)c2c[nH]c3ncc(-c4ccc(Cl)cc4)cc23)c1F [vemurafenib]	–	–	–	–	–	–	–	–	–	11	-9	-8	17	46	-4.72	-1.85	-5	2.6
